These results are taken from publication PMC5841205, “Pharmacological targeting of apelin impairs glioblastoma growth” (Brain, 2017).

The subject of test [1] is GSCs (glioblastoma patient-derived cells with stem-like properties). As to the kind of experiment: Tumoursphere formation, APLNR antagonists and TMZ. In kind it is cell-based, human. The conditions noted are these: GSC#1, TMZ 10–100 μM, Day 5. On the procedure: (§1) To test the tumoursphere formation, GSCs (100 cells/µl) were plated in triplicate in indicated media as previously described ([Harford-Wright et al., 2016]). Cells were manually dissociated each day and a single cell suspension maintained until Day 5. Tumourspheres were counted in five random fields of view, and the mean from the triplicate of each condition calculated from three independent experiments.
(§2) Figure 4 Pharmacological inhibition of APLNR impairs the effects of the endothelial secretome on GSCs by inhibition of GSK3β signalling. (A) Molecular structure and primary sequence of the competitive APLNR antagonist MM54. […] (J) Reverse protein phase array (RPPA) from the TCGA database were analysed in low and high APLNR expressing glioblastoma samples. *P < 0.05; **P < 0.01 compared to the low APLNR condition. […] (N) GSC #1 received sic (control) or GSK3B targeting siRNA (siGSK3B) and tumoursphere per field of view was quantified in MF supplemented with purified apelin (APLN, 1 μM). *P < 0.05 compared to the sic MF condition.
Figure 5 Pharmacological inhibition of APLNR by MM54 impairs the in vitro expansion of temozolomide-resistant GSCs. (A) Cell viability following treatment with DMSO, MM54 (2, 20 and 100 μM) or temozolomide (TMZ, 50 μM) was measured using UptiBlue in different cell types for 3 days. […]

In test [2] the test system is GSC#1 ALDH activity. As to the kind of experiment: ALDH activity (ALDEFLUOR flow cytometry). Type of test: cell-based, human. On the procedure: Analysis of aldehyde dehydrogenase (ALDH) activity was performed using the ALDEFLUOR™ assay kit (Stem Cell Technologies). Briefly, cells were incubated with ALDEFLUOR alone or in combination with an ALDH activity inhibitor (DAEB) at 37°C for 45 min. This flow cytometry-based staining allows monitoring ALDH activity in stem, progenitor and cancer precursor cells. The ALDH activity is considered positive in comparison to cells incubated with DEAB reagent.
(§3) Figure 4 Pharmacological inhibition of APLNR impairs the effects of the endothelial secretome on GSCs by inhibition of GSK3β signalling. (A) Molecular structure and primary sequence of the competitive APLNR antagonist MM54. […] (C) The percentage of calcium flux inhibition following MM54 treatment (0.4–10 μM) in the G-protein coupled receptor hits. (D) Tumoursphere per field of view (fov) in response to MM54 (0–4 μM) treatment in GSC#1 maintained in human brain endothelial cell-conditioned medium (EC-CM) and apelin-supplemented mitogen-free MF media (APLN, 1 μM) for 5 days. *P < 0.05 compared to EC-CM DMSO control, ^#P < 0.05 compared to apelin DMSO control. […] (F) Stem cell frequency in apelin supplemented media in response to MM54 (2 μM) in GSCs #1, #4, #9 and #12. *P < 0.05 compared to the vehicle condition. (G) Flow cytometry analysis of the percentage of ALDH positive and negative GSC #1 in response to 2, 10 or 20 μM of MM54 at Day 5. ALDH activity corresponds to the percentage of cells that contains ALDH activity (positive) or not (negative), normalized to the vehicle condition. *P < 0.05; ***P < 0.001 compared to the vehicle condition. […] (J) Reverse protein phase array (RPPA) from the TCGA database were analysed in low and high APLNR expressing glioblastoma samples. *P < 0.05; **P < 0.01 compared to the low APLNR condition. […] (N) GSC #1 received sic (control) or GSK3B targeting siRNA (siGSK3B) and tumoursphere per field of view was quantified in MF supplemented with purified apelin (APLN, 1 μM). *P < 0.05 compared to the sic MF condition.
(§4) Figure 5 Pharmacological inhibition of APLNR by MM54 impairs the in vitro expansion of temozolomide-resistant GSCs. (A) Cell viability following treatment with DMSO, MM54 (2, 20 and 100 μM) or temozolomide (TMZ, 50 μM) was measured using UptiBlue in different cell types for 3 days. […] (B and C) Cell viability following treatment with DMSO or TMZ (100 μM) was measured using UptiBlue in GSCs #1, #4, #9, and #12 for 3 days. […] (D) GSC#1 viability was assessed following combined treatment with MM54 (0.2–20 μM) and TMZ (constant ratios TMZ:MM54 2.5:1, 5:1, and 10:1) in NS and human brain endothelial cell-conditioned medium (EC-CM) conditions. (E and F) Tumoursphere per field of view (fov) and ALDH activity were assessed in response to MM54 (0.2–100 μM) or TMZ (10–100 μM) treatment at Day 5. […]
(In general: Flow cytometry measures light scatter and fluorescence of single cells or particles in a stream.)

Test [3] concerns U87 glioblastoma cell line. Nature of the test: Cell viability (UptiBlue), U87. In kind it is cell-based, human. As to the method:
(§5) Cell viability in response to MM54 was tested using the UptiBlue reagent (Interchim), a fluorometric/colorimetric growth indicator based on the detection of metabolic activity. Briefly, cells were seeded at a density of 2 × 10^3 per well, UptiBlue added at a concentration of 10% v/v and cells maintained at 37°C 5% CO2 until analysis. Absorbance was measured at Day 5 following treatment at 570 and 600 nm on a FLUOStar OPTIMA (BMG Labtech) plate reader, and the percentage of cell viability calculated according to the manufacturer’s instructions.
as §4

In test [4] the test system is LN229 glioblastoma cell line. Nature of the test: Cell viability (UptiBlue), LN229. The following applies: TMZ. In kind it is cell-based, human. As to the method:
as §5, §4

In test [5] the test system is GSCs #1, #4, #9, and #12. As to the kind of experiment: Cell viability (UptiBlue), GSCs. Type of test: cell-based, human. The following applies: TMZ 100 μM, GSCs #1, #4 and #9, serum-containing medium, 3 days. On the procedure:
as §5, §4

Test [6] has as its system GSC#1. As to the kind of experiment: Tumoursphere formation, tideglusib. Type of test: cell-based, human. The following applies: GSC#1, tideglusib 2.5 μM with apelin 1 μM. As to the method:
as §1
as §2, with “MM54. […] (C) The percentage of calcium flux inhibition following MM54 treatment (0.4–10 μM) in the G-protein coupled receptor hits.” for “MM54.”

Test [7] deals with GSC #1. As to the kind of experiment: Limiting dilution assay, tideglusib. The following applies: GSC#1, tideglusib 2.5 μM with apelin 1 μM. Type of test: cell-based, human. As to the method:
as §3, with “5.” for “5. ALDH activity corresponds to the percentage of cells that contains ALDH activity (positive) or not (negative), normalized to the vehicle condition. *P < 0.05; ***P < 0.001 compared to the vehicle condition.”

For test [8], the system named is GSCs (glioblastoma patient-derived cells with stem-like properties). As to the kind of experiment: Tumoursphere formation, apelin peptides. Type of test: cell-based, human. The following applies: for number of tumourspheres: 1 μM apelin peptide in mitogen-free medium (MF), GSCs #1, #9, #12 and #13, vs MF, 5 days.
Source text: Glioblastoma patient-derived cells with stem-like properties (GSCs) were isolated as previously described ([Treps et al., 2016]). Briefly, tumours were dissociated using the MACsDissociator (Miltenyi) and each GSC characterized for their self-renewal capabilities, cell surface antigens, expression of stemness markers, their ability to differentiate, and to initiate tumour formation (Supplementary Table 1). GSCs 1–16 were maintained as spheres in NS medium (DMEM-F12, with N2, G5 and B27 supplements, GlutaMAX™ and antibiotics, Life Technologies). To induce differentiation in GSCs, the three supplements were omitted and 10% foetal bovine serum added to the media.
as §1
(§6) (C) Confocal analysis of NESTIN (green), SOX2 (red) and nuclei (DAPI, blue) in GSC#1 grown in NS, MF, human brain endothelial cell-conditioned medium (EC-CM) or MF+APLN (1 μM). Scale bars = 20 µm. (D) Linear regression plot of in vitro limiting dilution assay (LDA) for GSC#1 in NS, EC-CM, MF, and MF+APLN (1 μM). Data are representative of n = 2. […] (F) Stem cell frequency in GSCs #1, #2, #4, #9 and #12 in response to MF and APLN conditions. […] (H) EC received non-silencing RNA (sic) or siRNA targeting APLN (siAPLN) and APLN knockdown efficiency assessed by RT-PCR and ELISA. […] (K) FACS analysis of the proliferation marker Ki67 in GSCs #4 and #9 in NS and MF+APLN conditions. All panels are representative of n = 3, unless otherwise specified.

Test [9] relates to GSC#1. The following applies: GSC#1, synthetic apelin 1 μM added to MF. As to the method: as §6
For test [10], the system named is GSCs #4 and #9. The conditions noted are these: GSCs #4 and #9, apelin-supplemented MF. On the procedure:
as §6

For test [11], the system named is GSCs (glioblastoma patient-derived cells with stem-like properties). As to the method: as §6
Test [12] has as its system endothelial cells. The following applies: ref Kleinz and Davenport, 2005; cited from earlier work. The text has this:
Moreover, apelin has been implicated in physiological and pathological angiogenesis ([Kaelin et al., 2007]). […] In keeping with this, a recent study proposed apelin as a marker for monitoring tumour vessel normalization and response to anti-angiogenic therapy ([Zhang et al., 2016]; [Zuurbier et al., 2017]).

Take `Cn1nnc2c(C(N)=O)ncn2c1=O` [TMZ, Temozolomide]: the “concentrations needed for tumoursphere impairment comparable to MM54” value in test [1] is listed as “required much higher concentrations to achieve comparable results”. In test [2] (GSC#1, TMZ 10–100 μM, Day 5), the “concentrations needed for ALDH impairment comparable to MM54” value was “required much higher concentrations to achieve comparable results”. Besides, in test [2] (TMZ alone), the “activity of the stem marker ALDH, TMZ alone” value is “does not alter the activity of the stem marker ALDH”. Besides, the “potentiation of MM54 effect on ALDH activity” value in [2] (TMZ with MM54 suboptimal dose <2 μM, MM54:TMZ 1:2.5, 1:5, 1:10) is reported as “significantly potentiates the effects of MM54”. Besides, the “percentage of ALDH-positive cells, TMZ combined with suboptimal dose of MM54” value in test [2] (TMZ with suboptimal dose of MM54) is given as “profound alterations in the percentage of ALDH-positive cells”. In [3] (TMZ), the “viability, U87” value is “significantly reduced the viability”. Further, the “viability, U87 grown as adherent differentiated cells” value in [3] (TMZ 100 μM, serum-containing medium, 3 days) is given as “reduces the viability”. The “viability, LN229” value in [4] is listed as “significantly reduced the viability”. Also, the “viability, GSCs grown as adherent differentiated cells” value in test [5] is reported as “reduces the viability”.
As to `O=c1sn(-c2cccc3ccccc23)c(=O)n1Cc1ccccc1` [tideglusib], the “effect on apelin-mediated increase in tumourspheres” value in test [6] was “apelin was less potent at increasing tumourspheres and self-renewal”. Besides, the “effect on apelin-mediated increase in self-renewal (LDA)” value in test [7] is “apelin was less potent at increasing tumourspheres and self-renewal”.
As for apelin-13, the number of tumourspheres entry in test [8] (n = 3) is reported as “increased the number of tumourspheres compared to mitogen-free media”. Further, the “potency at sustaining GSCs (tumourspheres)” value in [8] (1 μM, compared among apelin-13, pyr-apelin-13 and apelin-36) was “most potent at sustaining GSCs”. Further, in test [8] (GSC#1, increasing apelin-13 concentrations in MF, n = 3), the “tumourspheres, increasing concentrations” value is “potent and sustained increase in tumourspheres from the lowest concentration”. Moreover, in [8] (GSC#1 in siAPLN EC-CM plus apelin 1 μM, tumoursphere and LDA), the “stem properties of GSCs in APLN-depleted EC-CM” value is reported as “restored this effect”. The “ability of GSCs to expand as tumourspheres” value in test [8] (panel of 16 patient-derived GSCs, apelin-supplemented MF vs MF, n = 3) is reported as “significantly increased the ability of GSCs to expand as tumourspheres”. Further, the “rescue of NESTIN and SOX2 expression and ability to form tumourspheres” value in [9] was “rescued by the addition of synthetic apelin”. In addition, in test [10], the “proliferation (Ki67) of GSCs” value is given as “did not observe any obvious effect”. In test [11] (GSC#1, apelin 1 μM in MF vs MF, two weeks, n = 2), the “frequency of colony-forming cells” value is reported as “increase in the frequency of colony-forming cells”. Besides, in [11] (GSCs #1, #2, #4, #9 and #12, apelin vs MF), the “frequency of stem cells” value is on record as “increased the frequency of stem cells”. In addition, the “endothelial cell proliferation and vessel sprouting” value in test [12] is “induces proliferation and vessel sprouting in endothelial cells”.
With pyr-apelin-13, the number of tumourspheres entry in [8] (n = 3) is on record as “increased the number of tumourspheres compared to mitogen-free media”.
